In publication PMC12259270, “Sensory neuron–expressed FGF13 controls nociceptive signaling in diabetic neuropathy models” (The Journal of Clinical Investigation, 2025):
Residues, ends and D or L forms follow the SMILES beside them. *: point of attachment. Cbz = O=C(OCc1ccccc1)*; OtBu = CC(C)(C)O*

Target: T1, human Nav1.5 (Homo sapiens, UniProt Q14524)
T1 construct: expressed in transfected cells; host or cells: HEK293 stably expressing human Nav1.5
Assay: Whole-cell patch-clamp, HEK293 cells stably expressing human Nav1.5
Format: cell-based
Conditions: for Activation / Long-term inactivation, 2nd Pulse / Long-term inactivation, 3rd Pulse / Long-term inactivation, 4th Pulse / Peak Density / Steady state inactivation / Tau (τ): HEK293 Nav1.5
Description: Whole-cell patch clamp electrophysiology
HEK293-Nav1.7 cells, HEK293 stably expressing human Nav1.6 (HEK-Nav1.6), HEK293 stably expressing human Nav1.5 (HEK-Nav1.5), human hIPSC-derived sensory neurons (RealDRGTM from Anatomic Incorporated 1020F1-1M) and donor-derived DRG neurons were plated at low density on glass coverslips and processed for whole-cell patch clamp electrophysiology in voltage-clamp and/or current clamp mode. Whole-cell patch electrophysiological experiments were conducted following previously published studies (26). Current densities were obtained by dividing INa amplitude by membrane capacitance. Current –voltage relationships were generated by plotting current density as a function of the […]. Conductance (G Na) was calculated by the […]
where INa is the current amplitude at voltage Vm, and Erev is the Na+ reversal potential.
Activation curves were derived by plotting normalized GNa as a function of test potential and fitted using […]
Where GNa,Max is the maximum conductance, Va is the membrane potential of half-maximal activation, Em is the membrane voltage and k is the slope factor. For steady -state inactivation, normalized current amplitude (INa/INa,Max) at the test potential was plotted as a function of prepulse potential (Vm) and fitted using the […]
Where Vh is the potential of half-maximal inactivation, E m is the membrane voltage, and k is the slope factor.
Transient INa inactivation decay was estimated with the standard exponential equation. Inactivation time constant (tau, τ) was fitted with the following equation: […]
where I(t) is the amplitude of the current at time t and Iss is the steady-state current during a single voltage-step.
The goodness of fitting was determined by correlation coefficient (R), and the cutoff of R was set at 0.85. To observe effects on long-term inactivation (LTI), a four-step protocol was employed during which cells were subjected to four 0 mV, 20 ms depolarization pulses separated by −90 mV, 40 ms recovery intervals. To control for various cell sizes, the current densities were calculated by dividing INa peak current amplitude/membrane capacitance (Cm). To represent the fraction of channels entering into LTI, the peak INa observed during depolarization cycles 2-4 was normalized to the peak INa observed during depolarization cycle 1 (INa/INa,Cycle 1) and plotted as a function of the depolarization cycle.
The cumulative (frequency-dependent) use-dependency was determined by applying 20 pulses with a depolarization to −10 mV (50 ms duration) and 50 ms recovery intervals with a train of 20 pulses at 10 Hz from a holding potential at -70 mV. The current pulses were normalized to the first reco rded pulse and the currents at the 2nd to 20th pulses were compared. The same train was used to record use-dependency at various frequencies […]
The rate of recovery from inactivation was recorded at -80 mV with a standard repriming voltage protocol.
The cells were prepulsed to -20 mV for 20 ms to inactivate all currents, then driven back to the recovery potential (Vrec) for increasing recovery durations before the test pulse to 0 mV. The maximum pulse rate was 0.5 Hz. The […]
follows previous publications (16). The time constants were estimated from single exponential decay to time courses measured at recovery potentials ranging from -140 to -60 mV with the protocol as mentioned above.
Electrophysiological Recordings
HEK293 cells: Electrophysiological recordings in HEK293 stably expressing Nav1.7 (HEK-Nav1.7), Nav1.5 (HEK-Nav1.5) or Nav1.6 (HEK-Nav1.6) were performed at room temperature using a MultiClamp 700B or an Axopatch 200B amplifier (Molecular Devices) after incubating coverslips for 60 minutes either with 0.1% DMSO or 50 μM PW164 or ZL192 in the extracellular solution. The composition of recording solutions consisted of the […]
following salts: extracellular (mM): 140 NaCl, 3 KCl, 1 MgCl2, 1 CaCl2, 10 HEPES, 10 glucose, pH 7.3; […]
intracellular (mM): 130 CH3O3 SCs, 1 EGTA, 10 NaCl, 10 HEPES, pH 7.3. […]

T1 sequence (Q14524 whole entry): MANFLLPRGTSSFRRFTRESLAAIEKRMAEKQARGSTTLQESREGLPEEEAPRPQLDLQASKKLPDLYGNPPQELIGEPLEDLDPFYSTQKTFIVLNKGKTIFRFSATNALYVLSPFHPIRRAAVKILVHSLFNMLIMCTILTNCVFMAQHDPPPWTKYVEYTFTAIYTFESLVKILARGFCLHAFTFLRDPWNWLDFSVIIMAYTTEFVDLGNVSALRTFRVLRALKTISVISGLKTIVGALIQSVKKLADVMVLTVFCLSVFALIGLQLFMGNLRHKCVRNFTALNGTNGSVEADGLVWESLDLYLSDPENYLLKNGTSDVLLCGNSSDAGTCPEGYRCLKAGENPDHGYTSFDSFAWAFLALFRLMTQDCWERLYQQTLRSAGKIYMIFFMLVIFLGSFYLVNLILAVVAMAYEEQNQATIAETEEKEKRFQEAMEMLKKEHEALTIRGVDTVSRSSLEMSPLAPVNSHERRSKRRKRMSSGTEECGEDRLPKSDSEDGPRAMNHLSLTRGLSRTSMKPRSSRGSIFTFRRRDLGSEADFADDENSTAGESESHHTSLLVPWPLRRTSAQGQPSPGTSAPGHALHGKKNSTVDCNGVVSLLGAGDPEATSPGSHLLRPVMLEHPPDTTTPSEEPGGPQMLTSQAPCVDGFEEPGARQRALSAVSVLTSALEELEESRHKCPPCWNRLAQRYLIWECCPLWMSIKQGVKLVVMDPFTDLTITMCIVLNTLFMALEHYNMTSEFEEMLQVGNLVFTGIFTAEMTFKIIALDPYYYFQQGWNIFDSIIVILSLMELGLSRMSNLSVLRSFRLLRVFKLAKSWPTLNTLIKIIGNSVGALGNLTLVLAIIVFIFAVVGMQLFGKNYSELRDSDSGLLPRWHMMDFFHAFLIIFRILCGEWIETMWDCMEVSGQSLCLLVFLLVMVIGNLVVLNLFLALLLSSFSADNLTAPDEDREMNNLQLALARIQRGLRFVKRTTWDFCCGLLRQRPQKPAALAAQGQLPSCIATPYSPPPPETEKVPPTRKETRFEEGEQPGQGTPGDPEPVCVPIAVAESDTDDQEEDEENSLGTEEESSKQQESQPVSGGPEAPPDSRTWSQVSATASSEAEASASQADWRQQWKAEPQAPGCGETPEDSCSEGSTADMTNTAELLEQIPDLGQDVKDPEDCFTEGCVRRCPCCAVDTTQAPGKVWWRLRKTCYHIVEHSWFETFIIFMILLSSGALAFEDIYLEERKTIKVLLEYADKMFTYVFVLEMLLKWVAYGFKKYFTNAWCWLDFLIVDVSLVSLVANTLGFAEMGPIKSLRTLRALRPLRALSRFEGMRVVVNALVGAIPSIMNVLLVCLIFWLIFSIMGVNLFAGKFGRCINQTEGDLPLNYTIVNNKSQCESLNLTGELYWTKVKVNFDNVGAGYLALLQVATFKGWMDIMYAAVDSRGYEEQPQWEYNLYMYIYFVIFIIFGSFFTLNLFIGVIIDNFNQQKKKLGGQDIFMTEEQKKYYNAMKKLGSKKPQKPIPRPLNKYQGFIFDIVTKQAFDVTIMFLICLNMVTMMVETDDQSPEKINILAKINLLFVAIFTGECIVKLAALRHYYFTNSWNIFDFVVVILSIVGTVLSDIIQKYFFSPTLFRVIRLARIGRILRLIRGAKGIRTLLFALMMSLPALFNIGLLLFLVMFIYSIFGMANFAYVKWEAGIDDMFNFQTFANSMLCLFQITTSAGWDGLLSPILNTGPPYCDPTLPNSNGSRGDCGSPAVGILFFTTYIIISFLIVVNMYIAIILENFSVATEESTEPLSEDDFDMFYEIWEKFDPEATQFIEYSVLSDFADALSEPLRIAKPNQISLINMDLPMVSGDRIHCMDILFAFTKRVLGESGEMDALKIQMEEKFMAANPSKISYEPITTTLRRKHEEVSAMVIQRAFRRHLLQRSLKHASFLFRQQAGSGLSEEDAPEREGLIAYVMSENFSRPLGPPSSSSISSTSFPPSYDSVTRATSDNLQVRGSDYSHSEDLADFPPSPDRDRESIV

Compound: COC(=O)[C@@H](NC(=O)[C@H](CCC(=O)OC(C)(C)C)NC(=O)[C@H](CC(C)C)NC(=O)[C@@H]1CCCN1C(=O)OCc1ccccc1)C(C)C [PW164] (Cbz-PLE(OtBu)V-OMe)
- Activation (FGF13-GFP + PW164): −37.38 ± 2.1 mV
- Long-term inactivation, 2nd Pulse (FGF13-GFP + PW164): −89.1 ± 1.71 % maximal Na+ current
- Long-term inactivation, 3rd Pulse (FGF13-GFP + PW164): −86.58 ± 1.69 % maximal Na+ current
- Long-term inactivation, 4th Pulse (FGF13-GFP + PW164): −84.72 ± 1.83 % maximal Na+ current
- Peak Density (FGF13-GFP + PW164): −203.0 ± 15.6 pA/pF
- Steady state inactivation (FGF13-GFP + PW164): −75.9 ± 2.1 mV
- Tau (τ) (FGF13-GFP + PW164): 0.90 ± 0.04 ms
- Activation (GFP + PW164): −38.11 ± 1.8 mV
- Long-term inactivation, 2nd Pulse (GFP + PW164): −91.7 ± 1.27 % maximal Na+ current
- Long-term inactivation, 3rd Pulse (GFP + PW164): −85.98 ± 2.18 % maximal Na+ current
- Long-term inactivation, 4th Pulse (GFP + PW164): −84.62 ± 2.28 % maximal Na+ current
- Peak Density (GFP + PW164): −314.9 ± 17.9 pA/pF
- Steady state inactivation (GFP + PW164): −82.7 ± 1.5 mV
- Tau (τ) (GFP + PW164): 1.12 ± 0.07 ms
- activity on Nav1.5 currents (Nav1.5-expressing HEK293 cells alone or with FGF13-1b or FGF13-1a): inactive
